Measured values published in PubChem BioAssay (NCI).
Several values for one entry are separate records, joined by “and”; a condition that tells them apart may be missing. Equal entries are not always repeated.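 Cells were grown in 96-well plates and exposed to each compound for 48 hours at five concentrations; endpoints were interpolated linearly between bracketing concentrations, or set to the highest concentration if not reached. Here, GI50 denotes the concentration required for 50% inhibition of growth. Definition used: TGI = concentration required for complete inhibition of growth.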

Experiments:
Assay in all cases: NCI tumour cell line growth inhibition, 48 h
MALME-3M melanoma = test system: MALME-3M melanoma
NCI-H460 lung = test system: NCI-H460 lung
OVCAR-8 ovarian = test system: OVCAR-8 ovarian
SNB-75 CNS = test system: SNB-75 CNS
ACHN renal = test system: ACHN renal
SF-268 CNS = test system: SF-268 CNS
SN12C renal = test system: SN12C renal
MCF7 breast = test system: MCF7 breast
A549 NSCLC = test system: A549 NSCLC
M14 melanoma = test system: M14 melanoma

Cc1ccc(N=Nc2c(C)nn(C(=O)CC(=O)Nc3ccccc3)c2C)cc1C
TGI (MALME-3M melanoma): > 100 µM | TGI (NCI-H460 lung): > 100 µM | TGI (OVCAR-8 ovarian): > 100 µM | TGI (SNB-75 CNS): > 100 µM | TGI (ACHN renal): > 100 µM | TGI (SF-268 CNS): > 100 µM | TGI (SN12C renal): > 100 µM | TGI (MCF7 breast): > 100 µM | TGI (A549 NSCLC): > 100 µM | TGI (M14 melanoma): > 100 µM

Cc1ccc(F)cc1NC(=O)O/N=C(\Cl)C(C)C
TGI (MALME-3M melanoma): 16 µM | TGI (NCI-H460 lung): 86 µM | TGI (OVCAR-8 ovarian): 35.9 µM | TGI (SNB-75 CNS): 35.7 µM | TGI (ACHN renal): 4.41 µM | TGI (SF-268 CNS): 62.8 µM | TGI (SN12C renal): 11.4 µM | TGI (MCF7 breast): 20.8 µM | TGI (A549 NSCLC): 38.2 µM | TGI (M14 melanoma): 12.2 µM

COC(=O)Cc1ccc2c(c1)Sc1ccc(CC(=O)OC)cc1N2C
TGI (MALME-3M melanoma): 80.6 µM | TGI (NCI-H460 lung): > 100 µM | TGI (OVCAR-8 ovarian): > 100 µM | TGI (SNB-75 CNS): > 93.4 µM | TGI (ACHN renal): > 100 µM | TGI (SF-268 CNS): > 100 µM | TGI (SN12C renal): > 100 µM | TGI (MCF7 breast): > 63.5 µM | TGI (A549 NSCLC): > 90.3 µM | TGI (M14 melanoma): > 100 µM

C=CC[C@H]1[C@@H](O[Si](C)(C)C(C)(C)C)[C@H](n2ccc(=O)[nH]c2=O)O[C@@H]1CO[Si](C)(C)C(C)(C)C
TGI (MALME-3M melanoma): 9.04 µM | TGI (NCI-H460 lung): 4.06 µM | TGI (OVCAR-8 ovarian): 3.93 µM | TGI (SNB-75 CNS): 3.97 µM | TGI (ACHN renal): 5.41 µM | TGI (SF-268 CNS): 8.64 µM | TGI (SN12C renal): 3.32 µM | TGI (MCF7 breast): 3.8 µM | TGI (A549 NSCLC): 5.8 µM | TGI (M14 melanoma): 3.23 µM

CC(=O)Oc1ccc(/C=C/C(=O)O[C@@H](C)[C@H](C)OC(=O)/C=C/c2ccc(OC(C)=O)c(OC(C)=O)c2)cc1OC(C)=O
TGI (MALME-3M melanoma): 63.5 µM | TGI (NCI-H460 lung): > 100 µM | TGI (OVCAR-8 ovarian): 53.6 µM | TGI (SNB-75 CNS): > 100 µM | TGI (ACHN renal): > 100 µM | TGI (SF-268 CNS): > 100 µM | TGI (SN12C renal): > 100 µM | TGI (MCF7 breast): > 100 µM | TGI (A549 NSCLC): > 100 µM | TGI (M14 melanoma): 58.4 µM

CC(C)(CN)CN
TGI (MALME-3M melanoma): > 100 µM | TGI (NCI-H460 lung): > 100 µM | TGI (OVCAR-8 ovarian): > 100 µM | TGI (SNB-75 CNS): > 100 µM | TGI (ACHN renal): > 100 µM | TGI (SF-268 CNS): > 100 µM | TGI (SN12C renal): > 100 µM | TGI (MCF7 breast): > 100 µM | TGI (A549 NSCLC): > 100 µM | TGI (M14 melanoma): > 100 µM

C=CCC(C)C12CCNC(Cc3ccc(O)cc31)C2C (centres undefined)
TGI (MALME-3M melanoma): > 100 µM | TGI (NCI-H460 lung): > 100 µM | TGI (OVCAR-8 ovarian): > 100 µM | TGI (SNB-75 CNS): > 100 µM | TGI (ACHN renal): > 100 µM | TGI (SF-268 CNS): > 100 µM | TGI (SN12C renal): > 100 µM | TGI (MCF7 breast): > 100 µM | TGI (A549 NSCLC): > 100 µM | TGI (M14 melanoma): > 100 µM

COc1ccc(CCn2cnc3ccccc32)cc1
TGI (MALME-3M melanoma): > 100 µM | TGI (NCI-H460 lung): > 100 µM | TGI (OVCAR-8 ovarian): > 100 µM | TGI (SNB-75 CNS): > 100 µM | TGI (ACHN renal): > 100 µM | TGI (SF-268 CNS): > 100 µM | TGI (SN12C renal): > 100 µM | TGI (MCF7 breast): > 100 µM | TGI (A549 NSCLC): > 100 µM | TGI (M14 melanoma): > 100 µM

CC(=O)OC[C@H]1O[C@@H](O[C@H]2[C@H](OC(C)=O)C=CO[C@@H]2COC(C)=O)C(OC(C)=O)[C@H]2OC(C)(C)O[C@H]21 (some centres undefined)
TGI (MALME-3M melanoma): > 100 µM | TGI (NCI-H460 lung): > 100 µM | TGI (OVCAR-8 ovarian): > 100 µM | TGI (SNB-75 CNS): 87.3 µM | TGI (ACHN renal): > 100 µM | TGI (SF-268 CNS): > 100 µM | TGI (SN12C renal): > 100 µM | TGI (MCF7 breast): > 100 µM | TGI (A549 NSCLC): > 100 µM | TGI (M14 melanoma): > 100 µM

Cc1ccc(C)n2c1nc1ccc3ccccc3c12
TGI (MALME-3M melanoma): > 100 µM | TGI (NCI-H460 lung): > 100 µM | TGI (OVCAR-8 ovarian): > 100 µM | TGI (SNB-75 CNS): 86 µM | TGI (ACHN renal): > 100 µM | TGI (SF-268 CNS): > 100 µM | TGI (SN12C renal): > 100 µM | TGI (MCF7 breast): > 100 µM | TGI (A549 NSCLC): > 100 µM | TGI (M14 melanoma): > 100 µM

OC(C1CCC=NN1C(O)(C(F)(F)F)C(F)(F)F)(C(F)(F)F)C(F)(F)F (centres undefined)
TGI (MALME-3M melanoma): > 10 µM | TGI (NCI-H460 lung): > 10 µM | TGI (OVCAR-8 ovarian): > 10 µM | TGI (SNB-75 CNS): > 10 µM | TGI (ACHN renal): > 10 µM | TGI (SF-268 CNS): > 10 µM | TGI (SN12C renal): > 10 µM | TGI (MCF7 breast): > 10 µM | TGI (A549 NSCLC): > 10 µM | TGI (M14 melanoma): > 10 µM

CC(C)C[C@H](NC(=O)[C@H](Cc1cccc2ccccc12)NC(=O)N1CCOCC1)B(O)O
GI50 (MALME-3M melanoma): 0.000373 µM | TGI (MALME-3M melanoma): 0.00306 µM and < 0.0169 µM | GI50 (NCI-H460 lung): 0.0151 µM | TGI (NCI-H460 lung): 0.0542 µM and 0.0423 µM | GI50 (OVCAR-8 ovarian): 0.0113 µM | TGI (OVCAR-8 ovarian): 0.0626 µM | GI50 (SNB-75 CNS): 0.000622 µM | TGI (SNB-75 CNS): 0.00348 µM | TGI (ACHN renal): > 100 µM | GI50 (SF-268 CNS): 0.000925 µM | TGI (SF-268 CNS): 0.00328 µM | GI50 (SN12C renal): 0.0029 µM | TGI (SN12C renal): 0.0115 µM and < 0.0266 µM | GI50 (MCF7 breast): 0.000351 µM | TGI (MCF7 breast): 0.139 µM | GI50 (A549 NSCLC): 0.00609 µM | TGI (A549 NSCLC): 0.267 µM | GI50 (M14 melanoma): 0.000443 µM | TGI (M14 melanoma): 0.00154 µM and < 0.0125 µM

COc1ccc(N[C@H](CS(=O)c2ccc(C)cc2)c2ccc(F)cc2)cc1 (some centres undefined)
TGI (MALME-3M melanoma): > 100 µM | TGI (NCI-H460 lung): > 100 µM | TGI (OVCAR-8 ovarian): > 100 µM | TGI (SNB-75 CNS): 81.7 µM | TGI (ACHN renal): > 100 µM | TGI (SF-268 CNS): 94.5 µM | TGI (SN12C renal): > 100 µM | TGI (MCF7 breast): > 100 µM | TGI (A549 NSCLC): > 100 µM | TGI (M14 melanoma): > 100 µM

COc1ccc2c(c1)OC(c1cccnc1)C(c1ccccc1)C2=O (centres undefined)
TGI (MALME-3M melanoma): > 100 µM | TGI (NCI-H460 lung): > 100 µM | TGI (OVCAR-8 ovarian): > 100 µM | TGI (SNB-75 CNS): > 100 µM | TGI (ACHN renal): > 100 µM | TGI (SF-268 CNS): > 100 µM | TGI (SN12C renal): > 100 µM | TGI (MCF7 breast): > 100 µM | TGI (A549 NSCLC): > 100 µM | TGI (M14 melanoma): > 100 µM

c1ccc2c(-c3cnc(-c4c[nH]c5ccccc45)cn3)c[nH]c2c1
TGI (MALME-3M melanoma): > 100 µM | TGI (NCI-H460 lung): > 100 µM | TGI (OVCAR-8 ovarian): > 100 µM | TGI (SNB-75 CNS): 94.4 µM | TGI (ACHN renal): > 100 µM | TGI (SF-268 CNS): > 100 µM | TGI (SN12C renal): > 100 µM | TGI (MCF7 breast): > 100 µM | TGI (A549 NSCLC): > 100 µM | TGI (M14 melanoma): > 100 µM

CC(C)(CO)CNc1cc(=O)[nH]c(N)n1
TGI (MALME-3M melanoma): > 100 µM | TGI (NCI-H460 lung): > 100 µM | TGI (OVCAR-8 ovarian): > 100 µM | TGI (SNB-75 CNS): > 100 µM | TGI (ACHN renal): > 100 µM | TGI (SF-268 CNS): > 100 µM | TGI (SN12C renal): > 100 µM | TGI (MCF7 breast): > 100 µM | TGI (A549 NSCLC): > 100 µM | TGI (M14 melanoma): > 100 µM

CCCCOC(=O)C(=O)C(CCC(=O)c1ccc(C)cc1)C(=O)C=C(C)C (centres undefined)
TGI (MALME-3M melanoma): > 100 µM | TGI (NCI-H460 lung): > 100 µM | TGI (OVCAR-8 ovarian): > 100 µM | TGI (SNB-75 CNS): > 100 µM | TGI (ACHN renal): > 100 µM | TGI (SF-268 CNS): > 100 µM | TGI (SN12C renal): > 100 µM | TGI (MCF7 breast): > 100 µM | TGI (A549 NSCLC): > 100 µM | TGI (M14 melanoma): > 100 µM

CC(=O)c1ccc(N=Nc2ccc3nonc3c2N)cc1
TGI (MALME-3M melanoma): > 100 µM | TGI (NCI-H460 lung): > 100 µM | TGI (OVCAR-8 ovarian): > 100 µM | TGI (SNB-75 CNS): > 100 µM | TGI (ACHN renal): > 100 µM | TGI (SF-268 CNS): > 100 µM | TGI (SN12C renal): > 100 µM | TGI (MCF7 breast): > 100 µM | TGI (A549 NSCLC): > 100 µM | TGI (M14 melanoma): > 100 µM
